Laboratory results: paper PMC10683027, “Discovery of tert-Butyl Ester Based 6-Diazo-5-oxo-L-norleucine Prodrugs for Enhanced Metabolic Stability and Tumor Delivery” (Journal of Medicinal Chemistry, 2023)
≈ marks a conversion by molar mass, not a printed value. Where “and” joins values, the source holds several entries; their conditions need not be identical. Equal values may be shown once.

Assays:
[1] = Single time point pharmacokinetic screening, released DON in plasma and tumor of EL4 tumor-bearing mice; assay type: in vivo, C57BL/6/CES1–/– mice; conditions: 1 mg/kg DON equivalent SC; 30 min
Description: C57BL/6/CES1^–/– mice were obtained as a gift from the United States Army Medical Research Institute of Chemical Defense, Maryland, USA; breeding was performed in the Johns Hopkins animal facility and was conducted according to protocols reviewed and approved by the Johns Hopkins Institutional Animal Care and Use Committee in compliance with the Association for Assessment and Accreditation of Laboratory Animal Care International (AAALAC) and the Public Health Service Policy on the Humane Care and Use of Laboratory Animals (PHS Policy). Male and female C57BL/6 mice (weighing between 25 and 30 g) 6–8 weeks of age were used for the study. The animals were maintained on a 12 h light–dark cycle with ad libitum access to food (certified laboratory food: Teklad 18% Protein Extruded Rodent Diet) and water. EL4 mouse lymphoma cells were obtained as a gift from the laboratory of Dr. Jonathan Powell (Johns Hopkins University, Baltimore, MD) and maintained in RPMI 1640 medium 1X (Corning, cat. no. 10-040-CV) with 10% (v/v) fetal bovine serum (Corning, cat. no. 35-011-CV), 1% (v/v) antimycotic/antibiotic (Corning, cat. no. 30-004-CI), 2 mM L-glutamine (Corning, cat. no. 25-005-CI), and 10 mM HEPES (Corning, cat. no. 25-060-CI) in a 5% (v/v) CO2 and 95% (v/v) air incubator prior to subcutaneous (SC) injection (1 × 10^6 cells in 0.2 mL of phosphate-buffered saline) on the flank of each mouse. […]

[2] = Full pharmacokinetic evaluation of P11 in EL4 tumor-bearing mice (intact prodrug and released DON); assay type: in vivo, C57BL/6/CES1–/– mice; conditions: P11 2.9 mg/kg SC, analyte intact P11
Description: C57BL/6/CES1^–/– mice were obtained as a gift from the United States Army Medical Research Institute of Chemical Defense, Maryland, USA; breeding was performed in the Johns Hopkins animal facility and was conducted according to protocols reviewed and approved by the Johns Hopkins Institutional Animal Care and Use Committee in compliance with the Association for Assessment and Accreditation of Laboratory Animal Care International (AAALAC) and the Public Health Service Policy on the Humane Care and Use of Laboratory Animals (PHS Policy). Male and female C57BL/6 mice (weighing between 25 and 30 g) 6–8 weeks of age were used for the study. The animals were maintained on a 12 h light–dark cycle with ad libitum access to food (certified laboratory food: Teklad 18% Protein Extruded Rodent Diet) and water. EL4 mouse lymphoma cells were obtained as a gift from the laboratory of Dr. Jonathan Powell (Johns Hopkins University, Baltimore, MD) and maintained in RPMI 1640 medium 1X (Corning, cat. no. 10-040-CV) with 10% (v/v) fetal bovine serum (Corning, cat. no. 35-011-CV), 1% (v/v) antimycotic/antibiotic (Corning, cat. no. 30-004-CI), 2 mM L-glutamine (Corning, cat. no. 25-005-CI), and 10 mM HEPES (Corning, cat. no. 25-060-CI) in a 5% (v/v) CO2 and 95% (v/v) air incubator prior to subcutaneous (SC) injection (1 × 10^6 cells in 0.2 mL of phosphate-buffered saline) on the flank of each mouse.
Pharmacokinetic study was performed after tumors grew to a mean volume of around 400 mm^3. […]
Plasma concentration levels of P11 were measured by precipitating 20 μL of plasma sample with 100 μL of methanol containing internal standard (losartan, 0.5 μM), followed by vortex mixing for 30 s and then centrifugation at 16000g for 5 min at 4 °C. […]
Chromatographic analysis was performed on an Agilent ultra-high-performance LC system coupled with an Agilent 6520 QTOF mass spectrometer (Agilent, Santa Clara, CA). […] P11 concentrations were determined by the AUC of high-resolution extracted chromatograms of P11 divided by internal standard (460.2554 m/z/423.1695 m/z). […]

[3] = Aqueous solubility assay in PBS buffer (pH 7.4); assay type: physicochemical
Description: The aqueous solubility was determined as previously reported with minor modifications.[48] Briefly, an excess amount of P11 or DRP-104 was added to PBS buffer (pH 7.4) and sonicated for 1 h at 37 °C to ensure saturation. After 1 h, the solution was filtered (0.45 μm PTFE), and the filtrate was diluted appropriately, and the concentration of each analyte was determined via LC–MS. Chemical stabilities of DRP-104 and P11 were done as previously described[18] with modifications. For chemical stability, prodrugs were spiked (10 μM) in buffer at pH 7.4 and incubated at 37 °C for 24 h. Prodrug disappearance was monitored using the developed HRMS methods.

[4] = Stability of P11 in human plasma; assay type: in vitro ADME; conditions: Figure 3A
Description: (§1) Briefly, intestinal tissue was homogenized over ice via probe sonication with 1:9 tissue to potassium phosphate buffer (0.1 M) conditions. Prodrugs were spiked in plasma or tissue homogenate at 10 μM final concentration with 0.2% DMSO v/v and incubated in triplicate for 0 and 60 min time points. At each time point, 100 μL of the sample was precipitated with 300 μL of methanol containing internal standard (IS; losartan, 0.5 μM). Precipitated samples were vortexed (30 s) and centrifuged at 10000g for 10 min at 4 °C. After centrifugation, 100 μL of supernatant was aliquoted and submitted for analysis. Prodrug disappearance over time was monitored by liquid chromatography–mass spectrometry (LC–MS) through peak area ratios between the analyte and internal standard.

[5] = Metabolic stability in mouse plasma
Description: as §1
Chromatographic analysis was performed on a Dionex ultra-high-performance LC system coupled with a Q Exactive Focus Orbitrap mass spectrometer (Thermo Fisher Scientific Inc., Waltham, MA). Separation was achieved using an Agilent Eclipse Plus column (100 × 2.1 mm i.d.; maintained at 35 °C) packed with a 1.8 μm C18 stationary phase. The mobile phase used was composed of 0.1% formic acid in acetonitrile and 0.1% formic acid in water with gradient elution, starting with 2.5% organic phase (from 0 to 0.25 min) and linearly increasing to 99% (from 0.25 to 1.25 min) and re-equilibrating to 2.5% by 4 min. The total run time for each analyte was 5 min. Pumps were operated at a flow rate of 0.4 mL/min. The mass spectrometer controlled by Xcalibur software 4.0.27.13 (Thermo Scientific) was operated with an HESI ion source in positive ionization mode for all compounds. Compounds were identified in the full-scan mode with m/z ranging from 75 to 1125.

intestinal tissue levels of intact prodrug (below the limit of quantification) ([2]; intestinal tissue): < 0.01 nmol/mL | AUC of intact prodrug, tumor ([2]; tumor): 0.092 nmol·h/g | AUC at 6 h ([2]; both sexes, C57BL/6/CES1–/–, mouse, plasma): 0.15 µM·h | solubility at 1 h ([3]; PBS buffer pH 7.4, 37 °C, 1 h): 8100 ± 1100 µg/mL (≈ 17.6 mM) | fold solubility improvement compared to DRP-104 ([3]; buffer pH 7.4): 33 and > 30 | stability in human plasma [4]: confirmed | remaining at 1 h, 10 µM ([5]; CES1–/–, mouse, plasma): 93 ± 1% | Plasma ([5]; supplementary CSV, unit not given, matches Table 1 % remaining at 1 h, in %): 93 ± 1
SMILES: CN(C)CC(=O)N[C@@H](Cc1ccccc1)C(=O)N[C@@H](CCC(=O)C=[N+]=[N-])C(=O)OC(C)(C)C [Prodrug P11, tert-Butyl (S)-6-Diazo-2-((S)-2-(2-(dimethylamino)acetamido)-3-phenylpropanamido)-5-oxohexanoate]
preferential DON tumor versus plasma delivery [1]: maintained the preferential DON tumor versus plasma delivery
